Measurements as given in patent US8648038B2, “(2-aryloxyacetylamino)phenylpropionic acid derivatives, processes for preparation thereof and use thereof as medicaments” (Sanofi, priority 2010, dated 2014).

These compounds were tested against T1, GPR40 (Rattus norvegicus, UniProt Q8K3T4) (assay: In vitro FLIPR assay with recombinant HEK293 cells which express the GPCR GPR40 (intracellular Ca2+)). Conditions: recombinant HEK293 cells expressing GPR40; Fluo-4 Ca2+ signal; 100% = 10 μM linoleic acid.
T1 construct: expressed in transfected cells; host or cells: HEK293
T1 sequence (Q8K3T4 whole entry): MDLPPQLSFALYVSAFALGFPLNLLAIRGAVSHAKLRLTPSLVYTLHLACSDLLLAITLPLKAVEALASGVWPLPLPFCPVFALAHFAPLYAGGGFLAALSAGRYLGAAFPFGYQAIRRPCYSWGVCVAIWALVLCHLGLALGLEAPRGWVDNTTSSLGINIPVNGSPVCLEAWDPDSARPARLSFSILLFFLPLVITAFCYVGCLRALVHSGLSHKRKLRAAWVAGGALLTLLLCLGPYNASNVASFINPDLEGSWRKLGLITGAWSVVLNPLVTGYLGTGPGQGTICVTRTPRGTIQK
Format: cell-based
Method: In Vitro FLIPR Assay with Recombinant Cells which Express the GPCR GPR40
Function-testing assays were performed by means of the FLIPR technique (“Fluorescence Imaging Plate Reader”, Molecular Devices Corp.). For this purpose, agonist-induced changes were determined in the intracellular concentration of Ca^2+ in recombinant HEK293 cells which expressed the GPCR GPR40.
For the studies, cells were sown into 96-well microtiter plates (60 000 cells/well) and left to grow overnight. The medium was removed and the cells were incubated in buffer which contains the fluorescent dye Fluo-4. After this loading with dye, the cells were washed, test substance was added and changes were measured in the intracellular Ca^2+ concentration in the FLIPR instrument. Results were presented as the percentage change relative to the control (0%: no test substance added; 100%: 10 μM reference agonist linoleic acid added) and used to calculate dose/effect curves, and EC50 values were determined.

EC50	Structure (SMILES)
0.176 µM	CC#CC(CC(=O)O)c1ccc(NC(=O)C(C)Oc2cc(C(C)C)ccc2C)cc1 (stereo not drawn) [Example 5]
1.14 µM	CC#CC(CC(=O)O)c1ccc(NC(=O)C(C)(C)Oc2ccc(C(C)C)cc2Br)cc1 (stereo not drawn) [Example 8]
0.553 µM	CC#CC(CC(=O)O)c1ccc(NC(=O)C(Oc2ccc(C(C)C)cc2Br)C(C)C)cc1 (stereo not drawn) [Example 9]
0.187 µM	CC#CC(CC(=O)O)c1ccc(NC(=O)C(C)(C)Oc2cccc(C(C)C)c2)cc1 (stereo not drawn) [Example 16]
4.46 µM	CC#CC(CC(=O)O)c1ccc(NC(=O)C(C)(C)Oc2ccc(C(C)(C)C)cc2Br)cc1 (stereo not drawn) [Example 22]

Further lines, the compound ahead of its results:

Structure (SMILES)	EC50
CC#CC(CC(=O)O)c1ccc(NC(=O)C(C)Oc2cc(C)ccc2C(C)C)cc1 (stereo not drawn) [Example 4]	0.094 µM
CC#CC(CC(=O)O)c1ccc(NC(=O)C(C)Oc2cccc(C(C)C)c2)cc1 (stereo not drawn) [Example 6, 3-{4-[2-(3-Isopropylphenoxy)propionylamino]phenyl}hex-4-ynoic acid]	0.071 µM
COC(CC(=O)O)c1ccc(NC(=O)C(C)Oc2cc(C(C)C)ccc2C)cc1 (stereo not drawn) [Example 39]	5.08 µM
COC(CC(=O)O)c1ccc(NC(=O)C(C)Oc2cc(C)ccc2C(C)C)cc1 (stereo not drawn) [Example 40, 3-{4-[2-(2-Isopropyl-5-methylphenoxy)propionylamino]phenyl}-3-methoxypropionic Acid]	2.13 µM
COC(CC(=O)O)c1ccc(NC(=O)C(C)Oc2cccc(C(C)(C)C)c2)cc1 (stereo not drawn) [Example 42]	10.7 µM
COC(CC(=O)O)c1ccc(NC(=O)C(C)(C)Oc2ccc(Cl)cc2Cl)cc1 (stereo not drawn) [Example 43]	20.8 µM
COC(CC(=O)O)c1ccc(NC(=O)C(C)(C)Oc2cccc(C(C)C)c2)cc1 (stereo not drawn) [Example 47]	1.16 µM
